The record followed here is patent publication US20230148450A9, “BICYCLIC HETEROARYL COMPOUNDS AND USES THEREOF” (Revolution Medicines, Inc., priority 2019, published 2023).

Structures are written as SMILES.

For this test, the target named is T1, SOS1-mediated exchange of KRAS-4B:GDP to KRAS-4B:GTP (Homo sapiens, UniProt Q07889).
T1 construct: SOS1 (Cytoskeleton Inc., Cat. CS-GE02); purchased Cytoskeleton Inc. CS-GE02 (SOS1); CSRS03 (KRAS4-B)
T1 sequence (Q07889 564-1049 limits assumed): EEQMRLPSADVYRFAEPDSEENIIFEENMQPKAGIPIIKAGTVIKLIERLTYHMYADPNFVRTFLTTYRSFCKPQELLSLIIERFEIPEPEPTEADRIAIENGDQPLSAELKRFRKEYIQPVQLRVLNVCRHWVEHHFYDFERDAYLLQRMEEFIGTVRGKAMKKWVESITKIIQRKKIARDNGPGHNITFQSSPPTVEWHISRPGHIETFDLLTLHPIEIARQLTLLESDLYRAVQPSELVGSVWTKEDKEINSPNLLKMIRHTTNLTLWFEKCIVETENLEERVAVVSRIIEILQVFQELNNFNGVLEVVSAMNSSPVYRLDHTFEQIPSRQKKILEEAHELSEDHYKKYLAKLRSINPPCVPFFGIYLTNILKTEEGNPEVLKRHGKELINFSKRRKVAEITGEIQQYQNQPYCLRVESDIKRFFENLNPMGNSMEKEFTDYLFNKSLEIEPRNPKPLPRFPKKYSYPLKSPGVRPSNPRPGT
Put plainly: Bodipy-FL-GTP Association Assay. It counts as biochemical. As to conditions: SOS1 GEF activity on KRAS-4B, 22° C. Here is the method: A low IC50 value for a given compound is indicative of high potency of said compound in inhibiting the guanine nucleotide exchange factor (GEF) activity of SOS1 on KRAS-4B in this assay setting. Reagents: BODIPY FL GTP (ThermoFisher Scientific, Cat. G12411); KRAS4-B (Cytoskeleton Inc., Cat. CSRS03); SOS1 (Cytoskeleton Inc., Cat. CS-GE02); 2× Assay Buffer: 40 mM Tris-HCl, pH 7.5; 100 mM NaCl; 20 mM MgCl2; 0.1 mg/mL BSA; 0.02% NP-40 Assay Procedure: Test compounds were dissolved in DMSO to create 20 mM master stocks. The stocks were diluted in a 3× dilution series in 100% DMSO to achieve 100× compound stocks. A 1 μl spot of each test compound stock was delivered to two adjacent wells of a 96-well assay plate prior to running the assay. Reaction Mix preparation: The following were mixed in order at room temperature to obtain the “Reaction Mix” (5.75 mL 2× Exchange Buffer; 3.22 mL MilliQ ddH2O; 3 μL 5 mM BODIPY FL GTP; 230 μL 50 μM KRAS-4B; 9.203 mL Total volume. Reaction initiation: 80 μL of Reaction Mix was pipetted into each well of a half-area black 96-well plate (Corning, Cat. 3686) containing either a 1 μL spot of DMSO or a 1 μL spot test compound at the concentrations listed above. 20 μL of 1 μM SOS1 was then added to each well to initiate the reaction. For the no GEF control wells this was replaced with 1× exchange buffer. Kinetic measurement: The reaction was monitored in a SpectraMax M2 Microplate Reader (Molecular Devices) under the following protocol: 5 second rapid circular mixing before first read; 61 readings, 30 seconds apart; Assay temperature: 22° C.; Excitation wavelength: 485 nm; Emission wavelength: 513 nm. Data Analysis: The V max values for the SOS1-mediated BODIPY FL GTP exchange curves in the presence of test compounds were normalized to the most dilute test sample columns or DMSO only control wells to give the % Activity for each concentration of test compound. Plots of % Activity vs. the Log10 of the compound concentration were fit by non-linear regression to a 4-parameter logistic model.
What is called IC50 is the midpoint of a concentration-inhibition curve. A low value points to inhibition by little substance. Compound `C[C@@H](Nc1nccn2cc(C(=O)N3CCN(C)CC3)nc12)c1cccc(C(F)(F)F)c1` [Example 18] gave an IC50 above 5 µM.
`Cc1nc(N[C@H](C)c2cccc(C(F)(F)F)c2)c2cc(C3=CCNCC3)cn2n1` [Example 19] had an IC50 above 5 µM.
The same measure for `C[C@@H](Nc1nc(C2CC2)nn2cc(C3=CCNCC3)cc12)c1cccc(C(F)(F)F)c1` [Example 20]: above 5 µM.
The same measure for `COc1nc(N[C@H](C)c2cccc(C(F)(F)F)c2)c2cc(C3=CCNCC3)cn2n1` [Example 21]: 1 to 5 µM; for `COCC(=O)N1CC=C(c2cnc3c(N[C@H](C)c4cccc(C(F)(F)F)c4)nccn23)CC1` [Example 22]: above 5 µM; for `C[C@@H](NC1=NC=NC2SC(C3(O)CCC(C(=O)N(C)C)CC3)=CC12)c1cc(N)cc(C(F)(F)F)c1` (stereo partly shown) [Example 23]: below 1 µM.
To `Cc1cn2nc(C(=O)N3CCOCC3)cc2c(N[C@H](C)c2cccc(C(F)(F)F)c2)n1` [Example 24] belongs above 5 µM.
`Cc1cn2nc(C(=O)N3CCN(C)CC3)cc2c(N[C@H](C)c2cccc(C(F)(F)F)c2)n1` [Example 25] showed an IC50 above 5 µM.
To `Cc1nc(N[C@H](C)c2cc(N)cc(C(F)(F)F)c2)c2cc(C3=CCNCC3)sc2n1` [Example 26] belongs 1 to 5 µM.
As to `CC(=O)N1CCN(c2cc3c(N[C@H](C)c4cccc(C(F)(F)F)c4)ncnn3c2)CC1` [Example 27], the IC50 is below 1 µM.
